Experimental data from patent US5739278A, “Compositions for protein tyrosine phosphatases” (University of Washington, priority 1995, dated 1998).
Where a SMILES comes first, the peptide text is derived from it.

Experiments:
Assay in all cases: Phosphatase assay with ENDY(P)INASL as substrate
Format in all cases: biochemical
[1] = biological target: T1, PTP1B (Homo sapiens, UniProt P18031)
T1 construct: The 37 kDa form of PTP1B; from tissue; host or cells: placenta
T1 sequence (P18031 1-321 limits assumed): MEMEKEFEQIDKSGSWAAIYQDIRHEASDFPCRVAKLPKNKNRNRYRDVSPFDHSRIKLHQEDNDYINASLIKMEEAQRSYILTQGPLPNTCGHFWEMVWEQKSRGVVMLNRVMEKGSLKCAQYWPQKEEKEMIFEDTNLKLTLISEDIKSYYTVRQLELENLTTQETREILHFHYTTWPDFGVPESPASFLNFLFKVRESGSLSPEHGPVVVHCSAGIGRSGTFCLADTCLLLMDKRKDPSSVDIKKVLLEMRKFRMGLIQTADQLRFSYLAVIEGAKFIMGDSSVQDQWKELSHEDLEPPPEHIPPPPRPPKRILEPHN
Experimental: (§1) The tyrosine phosphatases TC.PTP, TCΔC11.PTP, and RPTPα were purified from infected Sf9 cells as described recently (Zander et al., Biochemistry 30: 6964-6970, 1991; Daum et al., J. Biol. Chem. 266: 12211-12215, 1991). The 37 kDa form of PTP1B and CD45 were purified from placenta and spleen, respectively (according to Tonks et al., J. Biol. Chem. 263: 6722-6730, 1988; Tonks et al., Biochemistry 27: 8695-8701, 1988).
(§2) Phosphatase assays with ENDY(P)INASL were performed in buffer M6. Aliquots of 30 μl or 60 μl containing the phosphopeptide, the phosphatase (-beads) and effectors were incubated for 10 minutes at 30° C. The reaction was stopped by adding 200 μl of a suspension of 10% activated, acid-washed Norit A charcoal (v/v) in 0.9N HCl, 0.1M pyrophosphate and 2 mM NaH2 PO4 (according to Streuli et al., Proc. Natl. Acad. Sci. USA 86: 8698-8702, 1989). The mixture was cleared by 10-minute centrifugation and the radioactivity of 150 μl of the supernate was determined. Assays with MBP and RCML were performed as described in Tonks et al., J. Biol. Chem. 263: 6722-6730, 1988. Protein concentration was determined with BSA as standard (Bradford, Anal. Biochem. 72: 248-254, 1976).

[2] = biological target: T2, TC.PTP (Homo sapiens, UniProt P17706); details: TC.PTP
T2 construct: made in house; host or cells: Sf9 cells (baculovirus)
T2 sequence (P17706 1-415): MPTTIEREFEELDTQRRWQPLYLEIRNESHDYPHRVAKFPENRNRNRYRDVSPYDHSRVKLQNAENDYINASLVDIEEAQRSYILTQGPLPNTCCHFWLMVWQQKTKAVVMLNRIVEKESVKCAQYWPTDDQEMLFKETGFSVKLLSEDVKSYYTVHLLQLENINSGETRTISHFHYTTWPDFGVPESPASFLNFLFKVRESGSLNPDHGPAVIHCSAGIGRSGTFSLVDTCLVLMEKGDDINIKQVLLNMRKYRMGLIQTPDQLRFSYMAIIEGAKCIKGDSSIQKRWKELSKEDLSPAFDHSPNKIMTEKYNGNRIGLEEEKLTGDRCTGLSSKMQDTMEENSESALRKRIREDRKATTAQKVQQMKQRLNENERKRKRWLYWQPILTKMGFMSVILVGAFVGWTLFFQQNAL
Experimental: as §1, §2

[3] = biological target: T3, CD45 (Homo sapiens, UniProt P08575)
T3 construct: CD45 were purified from placenta and spleen, respectively; from tissue; host or cells: spleen
T3 sequence (P08575 26-1306): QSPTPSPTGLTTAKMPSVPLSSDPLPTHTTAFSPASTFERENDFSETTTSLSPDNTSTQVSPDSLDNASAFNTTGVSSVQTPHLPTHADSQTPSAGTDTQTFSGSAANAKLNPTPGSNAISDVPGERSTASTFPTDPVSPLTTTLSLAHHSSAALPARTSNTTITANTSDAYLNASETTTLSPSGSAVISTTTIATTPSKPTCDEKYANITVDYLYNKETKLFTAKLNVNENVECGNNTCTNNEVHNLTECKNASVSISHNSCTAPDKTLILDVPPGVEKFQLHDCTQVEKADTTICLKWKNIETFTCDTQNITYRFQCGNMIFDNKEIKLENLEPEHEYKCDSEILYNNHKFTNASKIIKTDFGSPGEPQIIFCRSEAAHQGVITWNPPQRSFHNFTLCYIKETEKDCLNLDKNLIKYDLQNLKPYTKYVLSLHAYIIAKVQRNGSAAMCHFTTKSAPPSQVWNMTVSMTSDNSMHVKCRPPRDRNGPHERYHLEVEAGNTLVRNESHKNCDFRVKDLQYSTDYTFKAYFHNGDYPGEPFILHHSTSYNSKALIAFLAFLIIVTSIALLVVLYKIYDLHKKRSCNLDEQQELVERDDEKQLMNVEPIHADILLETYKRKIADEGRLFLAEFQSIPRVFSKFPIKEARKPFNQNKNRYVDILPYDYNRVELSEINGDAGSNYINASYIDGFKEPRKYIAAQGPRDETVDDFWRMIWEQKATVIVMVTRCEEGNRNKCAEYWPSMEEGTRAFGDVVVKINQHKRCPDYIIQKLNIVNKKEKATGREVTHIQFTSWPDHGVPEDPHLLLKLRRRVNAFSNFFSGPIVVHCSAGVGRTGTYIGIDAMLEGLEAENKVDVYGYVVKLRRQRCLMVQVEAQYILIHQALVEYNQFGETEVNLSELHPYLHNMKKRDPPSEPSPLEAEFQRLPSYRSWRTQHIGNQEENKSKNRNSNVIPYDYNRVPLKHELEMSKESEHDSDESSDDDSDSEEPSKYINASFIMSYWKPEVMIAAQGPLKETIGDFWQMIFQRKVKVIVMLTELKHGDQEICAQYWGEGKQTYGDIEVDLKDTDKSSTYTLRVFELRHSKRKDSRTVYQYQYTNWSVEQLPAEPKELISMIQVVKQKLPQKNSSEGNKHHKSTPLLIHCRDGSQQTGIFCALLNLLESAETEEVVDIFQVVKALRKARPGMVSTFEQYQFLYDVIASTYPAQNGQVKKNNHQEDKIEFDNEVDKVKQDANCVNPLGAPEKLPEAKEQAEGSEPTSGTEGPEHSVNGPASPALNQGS
Experimental: as §1, §2

[4] = biological target: T4, RPTPα (Homo sapiens, UniProt P18433)
T4 construct: made in house; host or cells: Sf9 cells (baculovirus)
T4 sequence (P18433 20-802): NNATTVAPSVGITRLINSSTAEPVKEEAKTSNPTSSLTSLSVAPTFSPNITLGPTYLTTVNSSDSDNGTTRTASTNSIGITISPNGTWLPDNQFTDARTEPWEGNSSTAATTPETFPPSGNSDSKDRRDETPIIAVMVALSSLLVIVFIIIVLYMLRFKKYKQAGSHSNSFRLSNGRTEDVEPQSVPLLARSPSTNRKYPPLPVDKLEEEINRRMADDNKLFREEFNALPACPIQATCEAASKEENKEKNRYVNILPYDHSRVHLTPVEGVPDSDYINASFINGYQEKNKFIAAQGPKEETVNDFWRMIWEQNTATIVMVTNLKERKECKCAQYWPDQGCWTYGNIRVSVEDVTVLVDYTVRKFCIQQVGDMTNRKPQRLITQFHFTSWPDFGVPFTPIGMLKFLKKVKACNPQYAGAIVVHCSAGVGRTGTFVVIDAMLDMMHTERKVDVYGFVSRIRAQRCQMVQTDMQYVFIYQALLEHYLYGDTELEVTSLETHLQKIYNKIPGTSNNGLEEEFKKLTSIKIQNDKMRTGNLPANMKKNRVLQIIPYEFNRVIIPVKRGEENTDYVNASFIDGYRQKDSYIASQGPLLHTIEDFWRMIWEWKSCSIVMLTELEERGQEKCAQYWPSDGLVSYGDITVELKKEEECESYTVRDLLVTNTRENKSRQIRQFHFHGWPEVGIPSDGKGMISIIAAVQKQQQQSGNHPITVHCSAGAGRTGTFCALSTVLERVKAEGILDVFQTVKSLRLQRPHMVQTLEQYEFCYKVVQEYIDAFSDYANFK
Experimental: as §1, §2

[5] = biological target: T5, TCΔC11.PTP (Homo sapiens, UniProt P17706)
T5 construct: both the wild type and truncated forms of the T-cell phosphatase; made in house; host or cells: Sf9 cells (baculovirus)
T5 sequence (P17706 1-317 limits assumed): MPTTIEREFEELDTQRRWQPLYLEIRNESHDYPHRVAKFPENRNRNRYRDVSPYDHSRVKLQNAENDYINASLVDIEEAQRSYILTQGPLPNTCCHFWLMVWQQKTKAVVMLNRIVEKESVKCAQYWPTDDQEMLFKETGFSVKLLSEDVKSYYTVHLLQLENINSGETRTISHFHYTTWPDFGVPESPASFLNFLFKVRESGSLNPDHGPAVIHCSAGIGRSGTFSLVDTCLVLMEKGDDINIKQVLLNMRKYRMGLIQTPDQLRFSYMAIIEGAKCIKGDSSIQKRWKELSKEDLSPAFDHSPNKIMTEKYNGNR
Experimental: as §1, §2

CC[C@H](C)[C@H](NC(=O)[C@H](Cc1ccc(O)cc1)NC(=O)[C@H](CC(=O)O)NC(=O)[C@H](CC(N)=O)NC(=O)[C@@H](N)CCC(=O)O)C(=O)N[C@@H](CC(N)=O)C(=O)N[C@@H](C)C(=O)N[C@@H](CO)C(=O)N[C@@H](CC(C)C)C(=O)O (H-ENDYINASL-OH)
Phosphatase activity in percent of the value obtained in the absence of effectors ([1]; effector 60 μM): 94%
Phosphatase activity in percent of the value obtained in the absence of effectors ([1]; effector 110 μM): 84%
Phosphatase activity in percent of the value obtained in the absence of effectors ([1]; effector 210 μM): 58%
Phosphatase activity in percent of the value obtained in the absence of effectors ([2]; effector 60 μM): 92%
Phosphatase activity in percent of the value obtained in the absence of effectors ([2]; effector 110 μM): 89%
Phosphatase activity in percent of the value obtained in the absence of effectors ([2]; effector 210 μM): 79%
Phosphatase activity in percent of the value obtained in the absence of effectors ([3]; effector 60 μM): 99%
Phosphatase activity in percent of the value obtained in the absence of effectors ([3]; effector 110 μM): 92%
Phosphatase activity in percent of the value obtained in the absence of effectors ([3]; effector 210 μM): 83%
Phosphatase activity in percent of the value obtained in the absence of effectors ([4]; effector 60 μM): 76%
Phosphatase activity in percent of the value obtained in the absence of effectors ([4]; effector 110 μM): 54%
Phosphatase activity in percent of the value obtained in the absence of effectors ([4]; effector 210 μM): 30%
Phosphatase activity in percent of the value obtained in the absence of effectors ([5]; effector 60 μM): 71%
Phosphatase activity in percent of the value obtained in the absence of effectors ([5]; effector 110 μM): 55%
Phosphatase activity in percent of the value obtained in the absence of effectors ([5]; effector 210 μM): 46%

O=C(O)CN(CCN(CC(=O)O)CC(=O)O)CC(=O)O [EDTA]
Phosphatase activity in percent of the value obtained in the absence of effectors ([1]; effector 1.0 mM): 139%
Phosphatase activity in percent of the value obtained in the absence of effectors ([1]; effector 3.0 mM): 125%
Phosphatase activity in percent of the value obtained in the absence of effectors ([1]; effector 5.0 mM): 110%
Phosphatase activity in percent of the value obtained in the absence of effectors ([2]; effector 1.0 mM): 119%
Phosphatase activity in percent of the value obtained in the absence of effectors ([2]; effector 3.0 mM): 104%
Phosphatase activity in percent of the value obtained in the absence of effectors ([2]; effector 5.0 mM): 80%
Phosphatase activity in percent of the value obtained in the absence of effectors ([3]; effector 1.0 mM): 96%
Phosphatase activity in percent of the value obtained in the absence of effectors ([3]; effector 3.0 mM): 78%
Phosphatase activity in percent of the value obtained in the absence of effectors ([3]; effector 5.0 mM): 76%
Phosphatase activity in percent of the value obtained in the absence of effectors ([4]; effector 1.0 mM): 115%
Phosphatase activity in percent of the value obtained in the absence of effectors ([4]; effector 3.0 mM): 97%
Phosphatase activity in percent of the value obtained in the absence of effectors ([4]; effector 5.0 mM): 86%
Phosphatase activity in percent of the value obtained in the absence of effectors ([5]; effector 1.0 mM): 142%
Phosphatase activity in percent of the value obtained in the absence of effectors ([5]; effector 3.0 mM): 109%
Phosphatase activity in percent of the value obtained in the absence of effectors ([5]; effector 5.0 mM): 93%

[Mg+2] [Mg^2+]
Phosphatase activity in percent of the value obtained in the absence of effectors ([1]; effector 1.0 mM): 81%
Phosphatase activity in percent of the value obtained in the absence of effectors ([1]; effector 3.0 mM): 73%
Phosphatase activity in percent of the value obtained in the absence of effectors ([1]; effector 5.0 mM): 71%
Phosphatase activity in percent of the value obtained in the absence of effectors ([2]; effector 1.0 mM): 72%
Phosphatase activity in percent of the value obtained in the absence of effectors ([2]; effector 3.0 mM): 57%
Phosphatase activity in percent of the value obtained in the absence of effectors ([2]; effector 5.0 mM): 60%
Phosphatase activity in percent of the value obtained in the absence of effectors ([3]; effector 1.0 mM): 80%
Phosphatase activity in percent of the value obtained in the absence of effectors ([3]; effector 3.0 mM): 62%
Phosphatase activity in percent of the value obtained in the absence of effectors ([3]; effector 5.0 mM): 72%
Phosphatase activity in percent of the value obtained in the absence of effectors ([4]; effector 1.0 mM): 90%
Phosphatase activity in percent of the value obtained in the absence of effectors ([4]; effector 3.0 mM): 72%
Phosphatase activity in percent of the value obtained in the absence of effectors ([4]; effector 5.0 mM): 59%
Phosphatase activity in percent of the value obtained in the absence of effectors ([5]; effector 1.0 mM): 75%
Phosphatase activity in percent of the value obtained in the absence of effectors ([5]; effector 3.0 mM): 60%
Phosphatase activity in percent of the value obtained in the absence of effectors ([5]; effector 5.0 mM): 58%

[Mn+2] [Mn^2+]
Phosphatase activity in percent of the value obtained in the absence of effectors ([1]; effector 1.0 mM): 26%
Phosphatase activity in percent of the value obtained in the absence of effectors ([1]; effector 3.0 mM): 23%
Phosphatase activity in percent of the value obtained in the absence of effectors ([1]; effector 5.0 mM): 20%
Phosphatase activity in percent of the value obtained in the absence of effectors ([2]; effector 1.0 mM): 49%
Phosphatase activity in percent of the value obtained in the absence of effectors ([2]; effector 3.0 mM): 30%
Phosphatase activity in percent of the value obtained in the absence of effectors ([2]; effector 5.0 mM): 21%
Phosphatase activity in percent of the value obtained in the absence of effectors ([3]; effector 1.0 mM): 78%
Phosphatase activity in percent of the value obtained in the absence of effectors ([3]; effector 3.0 mM): 56%
Phosphatase activity in percent of the value obtained in the absence of effectors ([3]; effector 5.0 mM): 44%
Phosphatase activity in percent of the value obtained in the absence of effectors ([4]; effector 1.0 mM): 60%
Phosphatase activity in percent of the value obtained in the absence of effectors ([4]; effector 3.0 mM): 38%
Phosphatase activity in percent of the value obtained in the absence of effectors ([4]; effector 5.0 mM): 21%
Phosphatase activity in percent of the value obtained in the absence of effectors ([5]; effector 1.0 mM): 34%
Phosphatase activity in percent of the value obtained in the absence of effectors ([5]; effector 3.0 mM): 22%
Phosphatase activity in percent of the value obtained in the absence of effectors ([5]; effector 5.0 mM): 15%

[O]=[V]([O-])([O-])[O-] [vanadate]
Phosphatase activity in percent of the value obtained in the absence of effectors ([3]; effector 1.0 μM): 66%
Phosphatase activity in percent of the value obtained in the absence of effectors ([3]; effector 10 μM): 17%
Phosphatase activity in percent of the value obtained in the absence of effectors ([3]; effector 100 μM): 4%
Phosphatase activity in percent of the value obtained in the absence of effectors ([4]; effector 1.0 μM): 62%
Phosphatase activity in percent of the value obtained in the absence of effectors ([4]; effector 10 μM): 4%
Phosphatase activity in percent of the value obtained in the absence of effectors ([4]; effector 100 μM): 0%
